Consider 20 compounds from patent US9309224B2 (Deciphera Pharmaceuticals, LLC, priority 2013, dated 2016).

Assay [1] deals with T1, unphosphorylated c-KIT kinase (uKIT, Seq. ID no. 2) (Homo sapiens, UniProt P10721).
T1 construct: uKit with N-terminal GST fusion used for
As to the kind of experiment: uKit kinase assay (pyruvate kinase/lactate dehydrogenase coupled). Type of assay: biochemical. As to conditions: ATP 2000 μM.
Description: In this assay, the oxidation of NADH (thus the decrease at A340 nm) was continuously monitored spectrophometrically. […] The inhibition reaction was started by mixing serial diluted test compound with the above reaction mixture. The absorption at 340 nm was monitored continuously for 4 hours at 30° C. on Synergy 2 plate reader (BioTech).

In the next assay the test system is osteoclast precursors. As to the kind of experiment: Osteoclast tartrate-resistant acid phosphatase assay. Type of assay: cell-based. Particulars: Osteoclast; 7-14 days, RANKL and M-CSF. The protocol:
Diluted compound was transferred to a 384-well black clear bottom plate. Two-thousand five hundred osteoclast precursors (Lonza, Walkersville, Md.) were added per well in growth media containing Receptor Activator of Nuclear Factor Kappa-beta ligand (RANKL) and M-CSF (R&D Systems, Minneapolis, Minn.). Plates were incubated for 7-14 days at 37 degrees Celsius, 5% CO2, and 95% humidity to allow differentiation of osteoclast precursors. […] Tartrate-resistant acid phosphatase activity in the supernatant samples was determined using an acid phosphatase assay kit (Sigma, St. Louis, Mo.). Absorbance was measured at 550 nm using a plate reader. Data was analyzed using Prism software (Graphpad, San Diego, Calif.) to calculate IC50 values.

The next assay deals with M-NFS-60 cells. As to the kind of experiment: M-NFS-60 cell proliferation assay. Type of assay: cell-based. Particulars: 67 h incubation, resazurin. On the technique in general: Alamar Blue is a resazurin reagent that responds to reducing activity.
For assay [2], the target named is T2, unphosphorylated c-FMS kinase (uFMS, Seq. ID no. 1) (Homo sapiens, UniProt P07333).
T2 construct: purchased Millipore
T2 sequence (P07333 538-972): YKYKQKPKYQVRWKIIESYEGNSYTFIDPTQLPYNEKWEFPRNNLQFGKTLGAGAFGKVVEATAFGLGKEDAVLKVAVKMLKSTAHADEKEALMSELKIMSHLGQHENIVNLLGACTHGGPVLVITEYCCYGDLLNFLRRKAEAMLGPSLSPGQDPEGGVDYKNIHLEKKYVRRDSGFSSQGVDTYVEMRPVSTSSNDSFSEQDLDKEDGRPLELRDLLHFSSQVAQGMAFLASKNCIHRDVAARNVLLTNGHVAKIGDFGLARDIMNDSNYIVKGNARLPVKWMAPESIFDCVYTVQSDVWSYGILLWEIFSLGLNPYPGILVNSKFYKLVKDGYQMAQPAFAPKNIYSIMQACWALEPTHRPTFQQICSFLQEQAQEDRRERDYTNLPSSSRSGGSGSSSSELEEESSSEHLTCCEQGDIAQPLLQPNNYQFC
As to the kind of experiment: uFMS kinase assay (pyruvate kinase/lactate dehydrogenase coupled). It is filed as biochemical. As to conditions: ATP 500 μM.

Assay [3] has as its target T3, unphosphorylated PDGFRβ kinase (uPDGFRβ, Seq. ID No. 3) (Homo sapiens, UniProt P09619).
T3 construct: purchased DeCode
As to the kind of experiment: Unphosphorylated PDGFRβ kinase assay (pyruvate kinase/lactate dehydrogenase coupled). Type of assay: biochemical. As to conditions: ATP 500 μM. From the text: Unphosyhorylated PDGFRβ (uPDGFRβkinase (Seq. ID No. 3) assay

T1 sequence (P10721 with tags, fused parts or gaps): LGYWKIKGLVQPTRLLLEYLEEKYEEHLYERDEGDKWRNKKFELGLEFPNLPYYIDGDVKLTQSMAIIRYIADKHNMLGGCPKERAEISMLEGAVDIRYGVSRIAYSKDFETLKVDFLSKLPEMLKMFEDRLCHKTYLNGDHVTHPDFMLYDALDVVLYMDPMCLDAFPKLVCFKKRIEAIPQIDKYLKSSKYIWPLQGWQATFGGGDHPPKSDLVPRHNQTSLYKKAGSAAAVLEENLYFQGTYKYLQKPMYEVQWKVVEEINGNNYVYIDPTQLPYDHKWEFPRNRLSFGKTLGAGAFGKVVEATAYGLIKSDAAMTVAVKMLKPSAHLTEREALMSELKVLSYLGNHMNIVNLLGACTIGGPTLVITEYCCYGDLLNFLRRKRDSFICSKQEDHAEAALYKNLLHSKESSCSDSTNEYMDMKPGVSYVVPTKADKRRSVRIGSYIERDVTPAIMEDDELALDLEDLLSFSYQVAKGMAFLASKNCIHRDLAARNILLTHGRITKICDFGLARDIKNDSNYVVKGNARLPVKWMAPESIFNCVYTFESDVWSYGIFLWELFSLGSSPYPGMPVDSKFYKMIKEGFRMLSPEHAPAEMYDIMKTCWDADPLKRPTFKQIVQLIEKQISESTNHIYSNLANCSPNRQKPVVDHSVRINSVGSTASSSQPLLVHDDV
T3 sequence (P09619 557-1105): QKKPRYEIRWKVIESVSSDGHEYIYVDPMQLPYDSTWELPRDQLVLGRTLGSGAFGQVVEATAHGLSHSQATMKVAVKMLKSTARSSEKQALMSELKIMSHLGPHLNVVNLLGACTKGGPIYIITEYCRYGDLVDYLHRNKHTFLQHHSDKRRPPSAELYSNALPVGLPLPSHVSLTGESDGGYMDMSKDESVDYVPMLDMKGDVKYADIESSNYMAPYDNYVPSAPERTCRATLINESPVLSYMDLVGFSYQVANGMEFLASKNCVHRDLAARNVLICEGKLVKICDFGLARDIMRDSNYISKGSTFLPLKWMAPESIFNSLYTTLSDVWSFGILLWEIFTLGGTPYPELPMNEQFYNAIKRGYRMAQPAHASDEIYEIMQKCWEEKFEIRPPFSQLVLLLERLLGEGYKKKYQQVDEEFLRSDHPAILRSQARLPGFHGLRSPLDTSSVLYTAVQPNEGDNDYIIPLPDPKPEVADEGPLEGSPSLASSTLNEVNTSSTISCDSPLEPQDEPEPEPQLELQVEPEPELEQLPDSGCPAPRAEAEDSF
Description for M-NFS-60 cells: M-NFS-60 Cell Proliferation Assay A serial dilution of test compound was dispensed into a 384-well black clear bottom plate (Corning, Corning, N.Y.). Two thousand five hundred cells were added per well in 50 μL complete growth medium. […] IC50 values were calculated from a series of percent inhibition values determined at a range of inhibitor concentrations using software routines as implemented in the GraphPad Prism software package.

As usually defined, the IC50 is the point on the concentration scale where inhibition reaches its midpoint. Read a high IC50 as weaker potency in that assay. Take `CC(=O)Nc1cc(Oc2ccc(NC(=O)NC(=O)C3CCCCC3)nc2)ccn1` [Example 1, N-((5-((2-acetamidopyridin-4-yl)oxy)pyridin-2-yl)carbamoyl)cyclohexanecarboxamide]: the half-inhibitory concentration (IC50) in assay [1] was 100 to 1000 nM; with osteoclast precursors, under 10 nM; with M-NFS-60 cells, under 10 nM; in assay [2], 10 to 100 nM.

As for `CC(=O)Nc1cc(Oc2ccc(NC(=O)NC(=O)CC3CCCCC3)nc2)ccn1` [Example 4, N-((5-((2-acetamidopyridin-4-yl)oxy)pyridin-2-yl)carbamoyl)-2-cyclohexylacetamide], the IC50 in assay [1] is 10 to 100 nM; with osteoclast precursors, under 10 nM; in the assay on M-NFS-60 cells, under 10 nM; in assay [2], under 10 nM.

For `CC(=O)Nc1cc(Oc2ccc(NC(=O)NC(=O)CC3CCOCC3)nc2)ccn1` [Example 6, N-((5-((2-acetamidopyridin-4-yl)oxy)pyridin-2-yl)carbamoyl)-2-(tetrahydro-2H-pyran-4-yl)acetamide], the IC50 in assay [1] was over 1000 nM; in the assay with osteoclast precursors, 10 to 100 nM; in the assay with M-NFS-60 cells, 100 to 1000 nM; in assay [2], 10 to 100 nM; in assay [3], 10 to 100 nM.

Regarding `CC(=O)Nc1cc(Oc2ccc(NC(=O)NC(=O)C(C)C)nc2C)ccn1` [Example 10, N-((5-((2-acetamidopyridin-4-yl)oxy)-6-methylpyridin-2-yl)carbamoyl)isobutyramide], the IC50 in assay [1] is over 1000 nM; with osteoclast precursors, 10 to 100 nM; in the assay with M-NFS-60 cells, 10 to 100 nM; in assay [2] it was 10 to 100 nM; in assay [3] it was 100 to 1000 nM.

In the case of `CC(=O)Nc1cc(Oc2ccc(NC(=O)NC(=O)C3CCOC3)nc2C)ccn1` (centres unmarked) [Example 14, N-((5-((2-acetamidopyridin-4-yl)oxy)-6-methylpyridin-2-yl)carbamoyl)tetrahydrofuran-3-carboxamide], the IC50 in assay [1] is over 1000 nM; in the assay on osteoclast precursors, 100 to 1000 nM; in the assay with M-NFS-60 cells it was 10 to 100 nM; in assay [2] it was 100 to 1000 nM; in assay [3] it was over 1000 nM.

As to `CC(=O)Nc1cc(Oc2ccc(NC(=O)NC(=O)C(C)C)nc2)ccn1` [Example 15, N-((5-((2-acetamidopyridin-4-yl)oxy)pyridin-2-yl)carbamoyl)isobutyramide], the IC50 in assay [1] is over 1000 nM; in the assay with osteoclast precursors it was 10 to 100 nM; in the assay with M-NFS-60 cells, 10 to 100 nM; in assay [2], 10 to 100 nM; in assay [3], 100 to 1000 nM.

On to `CCC(=O)NC(=O)Nc1ccc(Oc2ccnc(NC(C)=O)c2)cn1` [Example 16, N-((5-((2-acetamidopyridin-4-yl)oxy)pyridin-2-yl)carbamoyl)propionamide], for which the IC50 in assay [1] is over 1000 nM; with osteoclast precursors, 100 to 1000 nM; with M-NFS-60 cells, 100 to 1000 nM; in assay [2] it was 100 to 1000 nM; in assay [3] it was over 1000 nM.

Consider `CC(C)(C)C(=O)NC(=O)Nc1ccc(Oc2ccnc(NC(=O)C3CC3)c2)cn1` [Example 18, N-(4-((6-(3-pivaloylureido)pyridin-3-yl)oxy)pyridin-2-yl)cyclopropanecarboxamide], for which the IC50 in assay [1] was 100 to 1000 nM; with osteoclast precursors, under 10 nM; in the assay with M-NFS-60 cells, under 10 nM; in assay [2], under 10 nM; in assay [3], 100 to 1000 nM.

Turning to `CC(=O)Nc1cc(Oc2ccc(NC(=O)NC(=O)C3CCOC3)nc2)ccn1` (centres unmarked) [Example 22, N-((5-((2-acetamidopyridin-4-yl)oxy)pyridin-2-yl)carbamoyl)tetrahydrofuran-3-carboxamide], the IC50 in assay [1] was over 1000 nM; in the assay on osteoclast precursors it was 10 to 100 nM; in the assay with M-NFS-60 cells it was 100 to 1000 nM; in assay [2], 10 to 100 nM; in assay [3] it was over 1000 nM.

On to `CC(=O)Nc1cc(Oc2ccc(NC(=O)NC(=O)C3CC4CCC3O4)nc2)ccn1` (centres unmarked) [Example 28, N-((5-((2-acetamidopyridin-4-yl)oxy)pyridin-2-yl)carbamoyl)-7-oxabicyclo[2.2.1]heptane-2-carboxamide], for which the IC50 in assay [1] is 100 to 1000 nM; in the assay with osteoclast precursors, under 10 nM; in the assay on M-NFS-60 cells, 10 to 100 nM; in assay [2] it was under 10 nM.

On to `CC(=O)Nc1cc(Oc2ccc(NC(=O)NC(=O)C3CC4CCC3O4)nc2C)ccn1` (centres unmarked) [Example 29, N-((5-((2-acetamidopyridin-4-yl)oxy)-6-methylpyridin-2-yl)carbamoyl)-7-oxabicyclo[2.2.1]heptane-2-carboxamide], for which the IC50 in assay [1] was over 1000 nM; with osteoclast precursors, 10 to 100 nM; in the assay with M-NFS-60 cells it was 10 to 100 nM; in assay [2] it was 10 to 100 nM.

`CCC(=O)Nc1cc(Oc2ccc(NC(=O)NC(=O)C3CCOCC3)nc2)ccn1` [Example 32, N-((5-((2-propionamidopyridin-4-yl)oxy)pyridin-2-yl)carbamoyl)tetrahydro-2H-pyran-4-carboxamide]: the half-maximal inhibitory concentration (IC50) was over 1000 nM in assay [1]; 10 to 100 nM with osteoclast precursors; 10 to 100 nM with M-NFS-60 cells; 10 to 100 nM in assay [2]; 10 to 100 nM in assay [3].

As to `O=C(NC(=O)C1CCOCC1)Nc1ccc(Oc2ccnc(NC(=O)C3CC3)c2)cn1` [Example 35, N-((5-((2-(cyclopropanecarboxamido)pyridin-4-yl)oxy)pyridin-2-yl)carbamoyl)tetrahydro-2H-pyran-4-carboxamide], the IC50 was 100 to 1000 nM in assay [1]; under 10 nM in the assay with osteoclast precursors; under 10 nM in the assay with M-NFS-60 cells; under 10 nM in assay [2]; under 10 nM in assay [3].

As for `CCC(=O)Nc1cc(Oc2ccc(NC(=O)NC(=O)C3(OC)CC3)nc2)ccn1` [Example 39, 1-methoxy-N-((5-((2-propionamidopyridin-4-yl)oxy)pyridin-2-yl)carbamoyl)cyclopropanecarboxamide], the IC50 in assay [1] is over 1000 nM; in the assay with osteoclast precursors, 10 to 100 nM; in the assay with M-NFS-60 cells, 10 to 100 nM; in assay [2] it was 10 to 100 nM; in assay [3], over 1000 nM.

Regarding `COC(C)(C)C(=O)NC(=O)Nc1ccc(Oc2ccnc(NC(=O)C3CCN(C)CC3)c2)cn1` [Example 40, N-(4-((6-(3-(2-methoxy-2-methylpropanoyl)ureido)pyridin-3-yl)oxy)pyridin-2-yl)-1-methylpiperidine-4-carboxamide], the IC50 in assay [1] is over 1000 nM; in the assay with osteoclast precursors, 10 to 100 nM; in the assay with M-NFS-60 cells, 100 to 1000 nM; in assay [2], 10 to 100 nM.

With `CC(=O)Nc1cc(Oc2ccc(NC(=O)NC(=O)C3(C)CCC3)nc2C)ccn1` [Example 43, N-((5-((2-acetamidopyridin-4-yl)oxy)-6-methylpyridin-2-yl)carbamoyl)-1-methylcyclobutanecarboxamide], the IC50 in assay [1] is 100 to 1000 nM; in the assay with osteoclast precursors, under 10 nM; in the assay with M-NFS-60 cells it was under 10 nM; in assay [2] it was under 10 nM; in assay [3] it was 100 to 1000 nM.

For `CC(=O)Nc1cc(Oc2ccc(NC(=O)NC(=O)C3(C)CCC3)nc2)ccn1` [Example 44, N-((5-((2-acetamidopyridin-4-yl)oxy)pyridin-2-yl)carbamoyl)-1-methylcyclobutanecarboxamide], the IC50 was 100 to 1000 nM in assay [1]; under 10 nM in the assay with osteoclast precursors; under 10 nM in the assay on M-NFS-60 cells; under 10 nM in assay [2]; 100 to 1000 nM in assay [3].

In the case of `COC1(C(=O)NC(=O)Nc2ccc(Oc3ccnc(NC(=O)C4CCN(C)CC4)c3)cn2)CC1` [Example 49, N-(4-((6-(3-(1-methoxycyclopropanecarbonyl)ureido)pyridin-3-yl)oxy)pyridin-2-yl)-1-methylpiperidine-4-carboxamide], the IC50 was over 1000 nM in assay [1]; 100 to 1000 nM with osteoclast precursors; over 1000 nM with M-NFS-60 cells; 10 to 100 nM in assay [2]; over 1000 nM in assay [3].

For `CN(C)C(=O)Nc1cc(Oc2ccc(NC(=O)NC(=O)C3(C)CC3)nc2)ccn1` [Example 50, N-((5-((2-(3,3-dimethylureido)pyridin-4-yl)oxy)pyridin-2-yl)carbamoyl)-1-methylcyclopropanecarboxamide], the half-inhibitory concentration (IC50) was 10 to 100 nM in assay [1]; under 10 nM with osteoclast precursors; under 10 nM in the assay with M-NFS-60 cells; under 10 nM in assay [2]; 10 to 100 nM in assay [3].

For the compound `CN(C)C(=O)Nc1cc(Oc2ccc(NC(=O)NC(=O)C3CCOCC3)nc2)ccn1` [Example 51, N-((5-((2-(3,3-dimethylureido)pyridin-4-yl)oxy)pyridin-2-yl)carbamoyl)tetrahydro-2H-pyran-4-carboxamide], the concentration for half-maximal inhibition (IC50) is 100 to 1000 nM in assay [1]; 10 to 100 nM with osteoclast precursors; 10 to 100 nM in the assay on M-NFS-60 cells; under 10 nM in assay [2]; 10 to 100 nM in assay [3].
